# Laboratory results as given in patent US20240294460A1, “DEUTERATED ANALOGS AND DERIVATIVES OF 4-BROMO-2,5-DIMETHOXYPHEN[…] USES THEREOF” (Terran Biosciences Inc., priority 2021, published 2024).
# Values joined by “and” are separate entries in the source; they are usually repeats but may differ in a detail not shown here. Equal values may be shown once. Where a name gives a salt, the structure may show the parent alone.
# Experiment: Metabolic stability in human liver microsomes
# Conditions: human, microsomes, pH 7.4, CLint, pooled human liver microsomes 0.5 mg/mL; substrate 1 μM; NADPH 1 mM; 37° C.; 0-45 min
# Procedure: Pooled human liver microsomes were purchased from a commercial supplier. Microsomes were stored at −80° C. prior to use. […] A minus cofactor control incubation was included for each test compound where 0.1 M phosphate buffer pH 7.4 was added instead of NADPH (minus NADPH). Two control compounds (dextromethorphan and verapamil) were included with each test compound. All incubations were performed individually for each test compound. […] The reactions were stopped by transferring incubate into acetonitrile at the appropriate time points, in a 1:3 ratio. The termination plates were then centrifuged at 3,000 rpm for 20 min at 4° C. to precipitate the protein.
# From a plot of ln peak area ratio (test compound peak area/internal standard peak area) against time, the gradient of the line was determined.
# Elimination rate constant (k)=(−gradient)
# where V=Incubation volume (μL)/Microsomal protein (mg).
row,Structure (SMILES),microsomal CLint at 1 μM
1,Cl.[2H]C([2H])([2H])Oc1cc(CCN)c(OC)cc1Br [2-(4-Bromo-2-methoxy-5-(methoxy-d3)phenyl)ethan-1-amine hydrochloride],9.22 µL/min/mg
2,"Cl.[2H]C([2H])([2H])Oc1cc(C([2H])([2H])C([2H])([2H])N)c(OC)cc1Br [2-(4-bromo-2-methoxy-5-(methoxy-d3)phenyl)ethan-1,1,2,2-d4-1-amine hydrochloride]",10.5 µL/min/mg
3,"Cl.[2H]C([2H])(N)Cc1cc(OC([2H])([2H])[2H])c(Br)cc1OC [2-(4-bromo-2-methoxy-5-(methoxy-d3)phenyl)ethan-1,1-d2-1-amine hydrochloride]",10.9 µL/min/mg
4,"Cl.[2H]C([2H])([2H])Oc1cc(Br)c(OC)cc1C([2H])([2H])C([2H])([2H])N [2-(4-bromo-5-methoxy-2-(methoxy-d3)phenyl)ethan-1,1,2,2-d4-1-amine hydrochloride]",11.9 µL/min/mg
5,"Cl.[2H]C([2H])(N)Cc1cc(OC)c(Br)cc1OC([2H])([2H])[2H] [2-(4-bromo-5-methoxy-2-(methoxy-d3)phenyl)ethan-1,1-d2-1-amine hydrochloride]",12.4 µL/min/mg
6,Cl.[2H]C([2H])([2H])Oc1cc(Br)c(OC)cc1CCN [2-(4-bromo-5-methoxy-2-(methoxy-d3)phenyl)ethan-1-amine hydrochloride],18.2 µL/min/mg
7,"COc1cc(CCN)c(OC)cc1Br [2C-B HCl salt, 4-bromo-2,5-dimethoxyphenethylamine, reference compound]",9.56 µL/min/mg
8,"COc1ccc2c(c1)[C@]13CCCC[C@@H]1[C@H](C2)N(C)CC3 [dextromethorphan, reference compound]",51.2 µL/min/mg

# Same assay, conditions: human, microsomes, pH 7.4, t1/2, pooled human liver microsomes 0.5 mg/mL; substrate 1 μM; NADPH 1 mM; 37° C.; 0-45 min
row,Structure (SMILES),half-life at 1 μM
1,Cl.[2H]C([2H])([2H])Oc1cc(CCN)c(OC)cc1Br [2-(4-Bromo-2-methoxy-5-(methoxy-d3)phenyl)ethan-1-amine hydrochloride],2.5 h
2,"Cl.[2H]C([2H])([2H])Oc1cc(C([2H])([2H])C([2H])([2H])N)c(OC)cc1Br [2-(4-bromo-2-methoxy-5-(methoxy-d3)phenyl)ethan-1,1,2,2-d4-1-amine hydrochloride]",2.2 h
3,"Cl.[2H]C([2H])(N)Cc1cc(OC([2H])([2H])[2H])c(Br)cc1OC [2-(4-bromo-2-methoxy-5-(methoxy-d3)phenyl)ethan-1,1-d2-1-amine hydrochloride]",2.12 h
4,"Cl.[2H]C([2H])([2H])Oc1cc(Br)c(OC)cc1C([2H])([2H])C([2H])([2H])N [2-(4-bromo-5-methoxy-2-(methoxy-d3)phenyl)ethan-1,1,2,2-d4-1-amine hydrochloride]",1.95 h
5,"Cl.[2H]C([2H])(N)Cc1cc(OC)c(Br)cc1OC([2H])([2H])[2H] [2-(4-bromo-5-methoxy-2-(methoxy-d3)phenyl)ethan-1,1-d2-1-amine hydrochloride]",1.87 h
6,Cl.[2H]C([2H])([2H])Oc1cc(Br)c(OC)cc1CCN [2-(4-bromo-5-methoxy-2-(methoxy-d3)phenyl)ethan-1-amine hydrochloride],1.27 h
7,"COc1cc(CCN)c(OC)cc1Br [2C-B HCl salt, 4-bromo-2,5-dimethoxyphenethylamine, reference compound]",2.42 h
8,"COc1ccc2c(c1)[C@]13CCCC[C@@H]1[C@H](C2)N(C)CC3 [dextromethorphan, reference compound]",0.452 h

# Same assay, conditions: pooled human liver microsomes 0.5 mg/mL; substrate 1 μM; NADPH 1 mM; 37° C.; 0-45 min
Structure (SMILES),CLint,t1/2
"COc1ccc2c(c1)[C@]13CCCC[C@@H]1[C@H](C2)N(C)CC3 [dextromethorphan, reference compound]",53.0 μL/min/mg protein and 55.0 μL/min/mg protein,0.437 h and 0.42 h
